{
  "source": "patent US6368788B1",
  "about": "(priority 1987, dated 2002)",
  "key": {"E-RFC": {"tested_on": "E-RFC", "test": "Increase in no. E-RFC in vitro after incubation with L-Glu-L-Trp (breast cancer patients)", "format": "cell-based, human", "description": "Thirty six patients with breast cancer were treated with conventional radiation therapy (i.e., single doses of about 2-3 Gy daily for 10 days; total cumulative patient dose of 20-30 Gy). Following radiotherapy the patients were treated with L-Glu-L-Trp by injection of daily dosages im of 100 μg. The patients had been previously treated with radiation therapy (single doses 2 Gy; total dose 20-30 Gy).\nRam erythrocytes (E) were washed 4× in saline (2000 rpm/10 min.) and suspended at a final concentration of 1% in Medium 199. For determinations of the percentage of E-rosette forming T-lymphocytes (E-RFC) in a sample, 0.1 mL of a prepared lymphocyte suspension (2.5×10^6/ml) was incubated with 0.1 mL of the 1% ram erythrocyte suspension at 37° C. for 10 min., centrifuged at 800-1000 rpm for 5 min., maintained at 4° C. for 2 hrs., and finally resuspended and counted in a Goryaev chamber. Activated T-lymphocytes (i.e., having increased E-RFC capacity) were determined by mixing the test lymphocyte suspension with E, immediately centrifuging for 5 min. at 800-1000 rpm, resuspending the cells and counting the rosettes formed in a Goryaev chamber."}, "[1]": {"tested_on": "human peripheral blood T-lymphocytes", "test": "OKT4+ and OKT8+ lymphocytes from patients with secondary immunodeficiency after in vitro incubation", "format": "cell-based", "details": "for OKT4^+/OKT8^+ ratio / mean percentage of T-helper (OKT4^+) lymphocytes / mean percentage of T-suppressor (OKT8^+) lymphocytes: 45 minutes at 37° C.", "text": "The effects of L-Glu-L-Trp on human peripheral blood T-lymphocytes was investigated using indirect immunofluorescence microscopy and OKT4 and OKT8 monoclonal antibodies (Ortho, USA) directed to lymphocyte cell surface differentiation antigens. For these studies lymphocytes were isolated from heparinized peripheral blood (25 units heparin/mL) isolated from 18 different donors with inflammatory lung diseases and chronic purulent bronchitis accompanied by a secondary immunodeficiency state. Lymphocytes were prepared by centrifugation on Ficoll-Hypaque, washed, and then incubated in vitro for 45 minutes at 37° C. in the presence (or absence) of L-Glu-L-Trp at concentrations of 1 mg/mL, 0.01 mg/mL, 0.0001 mg/mL. Following incubation the cells were washed with Medium 199 and the percentage of OKT4^+ (T-helper) and OKT8^+ (T-suppressor) lymphocytes determined by indirect immunofluorescent microscopy. The results presented in TABLE 51 show the mean percentages of OKT4^+ and OKT8^+ cells in this group of patients after incubation with Medium 199 (Control), or with L-Glu-L-Trp."}, "Dengue virus": {"tested_on": "Dengue virus", "test": "Hemorrhagic Dengue Fever Protocol A", "format": "in vivo, human", "description": "L-Glu-L-Trp was administered to 21 patients with hemorrhagic Dengue Fever, and 28 patients receiving conventional therapy served as controls. L-Glu-L-Trp was administered im single daily doses of 100 μg on each of 5 consecutive days as an adjunct to ongoing conventional therapy. […] The investigators also observed that L-Glu-L-Trp treated patients experienced a reduction in muscle and bone pain. Immunological indices in peripheral blood were also normalized.\nForty nine patients (20-30 years of age; Kinh nationality) with diagnosed Dengue Fever were entered into the trial. The patients were referred to the 175th Military Hospital in Ho Chi Minh City at the time of an epidemic of Dengue fever in the South […] Republic of Vietnam. Diagnosis was based on the criteria recommended by the World Health Organization (1986) using medical histories, and clinical and laboratory data. Serological analyses were conducted at the Arbovirus Infectious Diseases Laboratory of the Pasteur Institute in Ho Chi Minh City. […] Dyspeptic toxicosis, i.e., nausea and vomiting were rarely encountered (15% and 11.7%, respectively). Joint and muscle pains were pronounced, most commonly involving the spinal joints in the lumbar region (96.6%), joints of the pelvic girdle (82.2%), the ulnar joints (53.4%), as well as, the muscles of the lumbar (69%) and abdominal regions (69%). Exanthema (40.7%) and lymphadenopathy (46.7%) were evident in certain patients. […] Leukocytes during peak episodes of disease were recorded to be 4.60±0.17×10^9/L, and the absolute number of lymphocytes varied widely from 0.95 to 4.29×10^9/L.\nGroup 1 received conventional maintenance therapy consisting of detoxifying preparations and methods, e.g., fluids, fever control agents and the like. Group 2 received combination therapy, i.e., maintenance therapy and L-Glu-L-Trp, but only during periods of acute disease activity. L-Glu-L-Trp was administered at a dosage of 500 μg. The efficacy of the respective treatment protocols was evaluated by recording the most frequently used clinical indicia of Dengue disease activity: namely, the clinical indicia recorded in TABLE 45."}, "Allogeneic skin grafts": {"test": "Allogeneic skin grafts", "design": "species or system human", "details": "in vivo", "description": "L-Glu-L-Trp was administered to 17 patients receiving allogeneic skin grafts. 27 patients receiving similar grafts and conventional care served as the control group. L-Glu-L-Trp was administered im as a single daily injection of 50-100 μg on each of 5 consecutive days, or alternatively, intranasally at a dose of 1 μg/kg daily for 5 days. Graft rejection was manifest in 8 of the control patients."}, "[2]": {"details": "Combination L-Glu-L-Trp Therapy (n = 21)"}},
  "note": "Marks after values point to notes of the source that are not given here.",
  "data": [
    {"substance": "L-Glu-L-Trp", "values": [
      {"measurement": "Increase in no. E-RFC in vitro after incubation with L-Glu-L-Trp", "setting": "E-RFC; cells taken After L-Glu-L-Trp therapy", "result": "1.27 ± 0.14"},
      {"measurement": "Increase in no. E-RFC in vitro after incubation with L-Glu-L-Trp", "setting": "E-RFC; cells taken After Radiotherapy", "result": "1.19 ± 0.13"},
      {"measurement": "Increase in no. E-RFC in vitro after incubation with L-Glu-L-Trp", "setting": "E-RFC; cells taken Before Radiotherapy", "result": "1.23 ± 0.15"},
      {"measurement": "Percentage of detectable OKT8+ T-suppressor cells", "setting": "[1]", "result": "did not alter the percentage of detectable OKT 8^+ T-suppressor cells"},
      {"measurement": "Percentage of detectable T-helpers (OKT4+)", "setting": "[1]; 1 and 0.01 mg/mL", "result": "increased the percentage of detectable T-helpers"},
      {"measurement": "OKT4^+/OKT8^+ ratio", "setting": "[1]; Dose 0.0001 mg/ml", "result": 1.1},
      {"measurement": "mean percentage of T-helper (OKT4^+) lymphocytes", "setting": "[1]; Dose 0.0001 mg/ml", "result": "25.4 ± 2.3"},
      {"measurement": "mean percentage of T-suppressor (OKT8^+) lymphocytes", "setting": "[1]; Dose 0.0001 mg/ml", "result": "23.1 ± 2.1"},
      {"measurement": "OKT4^+/OKT8^+ ratio", "setting": "[1]; Dose 0.01 mg/ml", "result": "1.8*"},
      {"measurement": "mean percentage of T-helper (OKT4^+) lymphocytes", "setting": "[1]; Dose 0.01 mg/ml", "result": "39.8 ± 2.4"},
      {"measurement": "mean percentage of T-suppressor (OKT8^+) lymphocytes", "setting": "[1]; Dose 0.01 mg/ml", "result": "22.7 ± 1.8"},
      {"measurement": "OKT4^+/OKT8^+ ratio", "setting": "[1]; Dose 1 mg/ml", "result": "1.9*"},
      {"measurement": "mean percentage of T-helper (OKT4^+) lymphocytes", "setting": "[1]; Dose 1 mg/ml", "result": "39.7 ± 2.7"},
      {"measurement": "mean percentage of T-suppressor (OKT8^+) lymphocytes", "setting": "[1]; Dose 1 mg/ml", "result": "21.4 ± 1.3"},
      {"measurement": "Duration of Symptom: Eye muscle pain", "setting": "Dengue virus; [2]", "result": "6.6 ± 0.8", "unit": "h"},
      {"measurement": "Duration of Symptom: Fever, At day 2-4 of illness", "setting": "Dengue virus; [2]", "result": "4.7 ± 0.2", "unit": "h"},
      {"measurement": "Duration of Symptom: Fever, At day 2-6 of illness", "setting": "Dengue virus; [2]", "result": "5.2 ± 0.3", "unit": "h"},
      {"measurement": "Duration of Symptom: Headache", "setting": "Dengue virus; [2]", "result": "8.1 ± 0.9", "unit": "h"},
      {"measurement": "Duration of Symptom: Hepatomegally", "setting": "Dengue virus; [2]", "result": "11.3 ± 0.8", "unit": "h"},
      {"measurement": "Duration of Symptom: Insomnia", "setting": "Dengue virus; [2]", "result": "7.1 ± 0.7", "unit": "h"},
      {"measurement": "Duration of Symptom: Joint pain", "setting": "Dengue virus; [2]", "result": "7.4 ± 0.7", "unit": "h"},
      {"measurement": "Duration of Symptom: Loss of appetite", "setting": "Dengue virus; [2]", "result": "7.5 ± 0.8", "unit": "h"},
      {"measurement": "Duration of Symptom: Lumbar pain", "setting": "Dengue virus; [2]", "result": "8.7 ± 0.7", "unit": "h"},
      {"measurement": "Duration of Symptom: Skeletal muscle pain", "setting": "Dengue virus; [2]", "result": "7.7 ± 1.1", "unit": "h"},
      {"measurement": "Duration of Symptom: Splenomegally", "setting": "Dengue virus; [2]", "result": "9.6 ± 0.7", "unit": "h"},
      {"measurement": "Duration of Symptom: Waist/Pelvic girdle pain", "setting": "Dengue virus; [2]", "result": "8.1 ± 0.8", "unit": "h"},
      {"measurement": "Duration of Symptom: Weakness", "setting": "Dengue virus; [2]", "result": "9.3 ± 0.8", "unit": "h"},
      {"measurement": "Clinical outcome", "setting": "Dengue virus; in vivo", "result": "decrease in fever, reduction of toxic symptoms"},
      {"measurement": "Clinical outcome", "setting": "Allogeneic skin grafts", "result": "prevented infectious complications and delayed graft rejection"}
    ]}
  ]
}
